Measured values published in US4303672A, “Cyclopropanecarboxylate insecticides and/or acaricides exhibiting low toxicity to mammals and fish” (priority 1979, dated 1981).
Converted amounts (≈) assume the structure as drawn. Read-outs that look alike come from different tables or passages of the source.

Experiments:
[1] = tested on: green rice leafhopper (Nephotettix cincticeps); assay: Test Example 6: simulated paddy field test, green rice leafhopper; assay type: in vivo; details: 100 ppm at 100 liter/10 are, after 48 hours
Description: (§1) The wettable powder of each of the present compounds (1), (2), (4) and (5) prepared in Preparation Example 4 was diluted with water so that the concentration of active ingredient was 100 ppm. Soil was placed in a plastic box [5 m×5 m×2 m (deep)] to a level of 50 cm from the bottom, and rice plants about 50 cm high were transplanted at intervals of 50 cm. Water was then placed in the box so that water depth was 5 cm, and 20 killifishes (Oryzias latipes) were liberated therein. Thereafter, the above dilute solution was sprayed on the box at a rate of 100 liter/10 are. The solution fell on the rice plants as well as on the water surface.
(§2) One hour after treatment, 100 female adults of green rice leafhopper (Nephotettix cincticeps) were liberated in the box which was immediately covered with a net.

[2] = tested on: killifishes (Oryzias latipes); assay: Test Example 6: simulated paddy field test, killifish; assay type: in vivo; details: 100 ppm at 100 liter/10 are, water depth 5 cm, after 48 hours
Description: as §1, §2

[3] = Test Example 7: Test for toxicity to fishes (fry carp); assay type: in vivo, fry carp (Cyprinus carpio); details: water, read-out: Toxicity to fishes TLm48
Description: (§3) Toxicity to killifish (Oryzias latipes) was tested according to the test method for toxicity to fishes described in Notification B No. 2735 of the Ministry of Agriculture and Forestry (Nov. 25, 1965). Namely, each of the present compounds (1), (4), (5) and (6) was dissolved or suspended in "Tween 80" and diluted successively with dechlorinated tap water. Ten killifish (0.2-0.3 g per fish) were released in a 10-liter glass vessel containing 5 liters of each preparation.
Toxicity to fry carp (Cyprinus carpio) was tested according to the test method for toxicity to fishes described in Notification B No. 2735 of the Ministry of Agriculture and Forestry (Nov. 25, 1965). The comparative test was made in a manner similar to that of Test Example 1.

[4] = tested on: killifish (Oryzias latipes); assay: Test Example 1: Test for toxicity to fishes (killifish); assay type: in vivo; details: TLm48 killifish (a) / concentration of active ingredient in water (b) at green rice leafhopper LC50
Description: as §3
(§4) In order to make it clearer that the present compounds have a low toxicity to fishes as well as a high insecticidal activity, a safety coefficient to fishes was calculated from the test results of toxicity to fishes and insecticidal activity. [formula]
(§5) A detailed explanation will be given as to a method of how to calculate the safety coefficient. In the case of green rice leafhoppers, calculation was based on the concentration of active ingredient in water obtained by applying a test solution containing the active ingredient in an amount corresponding to LC50 (ppm) to a flooded paddy field 5 cm deep at a rate of 100 liter/10 are, provided that all the active ingredient applied entered the water.
(§6) In this case, the coefficient is 333, which means that the present compound (1) has a 333-fold safety.

[5] = as above; assay type: in vivo, killifish (Oryzias latipes); details: water; killifish, 48 hours; read-out: Toxicity to fishes TLm48 (medium tolerance limit, 48 hours)
Description: as §3, §4, §5, §6

[6] = tested on: green rice leafhopper (Nephotettix cincticeps); assay: Test Example 1: Test for insecticidal activity (green rice leafhopper); assay type: in vivo; details: green rice leafhopper R-strain, spray on rice plant, 26° C., 24 hours, 3 replications, read-out: LC50 (median lethal concentration)
Source text: The emulsifiable concentrates of the present compounds and reference compound prepared in Preparation Example 1 were each formulated into test solutions having four different concentrations of active ingredient between 500 ppm and 0.5 ppm. Each test solution was sprayed on rice plant in a 180-ml plastic cup which had elapsed one month after sowing, at a rate of 15 cc/2 cups by means of a turn table. After air-drying, the rice plant was covered with a wire-screen cage, and 15 female adults of green rice leafhopper (Nephotettix cincticeps) (a strain resistant to carbamates and organo-phosphates, hereinafter referred to as R-strain) were liberated therein. The plant was placed in an artificial climate chamber kept at 26° C. After 24 hours, the dead and alive were examined. The median lethal concentration [LC50 (ppm)] was calculated from the mortality determined by 3 replications.
as §5, §6

[7] = tested on: yellow fever mosquito (Aedes aegypti); assay type: in vivo; details: 50 mg granule in 100 cc water, full grown larvae, 24 hours
Description: Fifty milligrams of the granule of the present compound (1) obtained in Preparation Example 6 was placed in a 100-cc beaker containing 100 cc of distilled water, and 30 full grown larvae of yellow fever mosquito (Aedes aegypti) were liberated therein. After 24 hours, 100% of the larvae could be killed.

[8] = tested on: green rice leafhopper (Nephotettix cincticeps); assay: Test Example 5: Residual effect test (green rice leafhopper); assay type: in vivo
Description: The emulsifiable concentrate of the present compound (1) prepared in Preparation Example 1 was diluted with water so that the concentration of active ingredient was 400 ppm. Thereafter, 20 cc of the dilute solution was sprayed on rice plants grown in a 1/10,000 are Wagner's pot. The rice plants were air-dried and covered with a wire-screen cage, and 15 female adults of green rice leafhopper (Nephotettix cincticeps) were liberated therein. After 24 hours, the dead and alive were examined to obtain mortality. In order to examine the residual effect, the pot was then left as it was for 7 days, and the test insects were liberated in the same manner as above. After 24 hours, the mortality was examined. The experiment was carried out in a greenhouse and the number of replications was three.

[9] = tested on: carmine mites (Tetranychus cinnabarinus); assay: Test Example 4: spray test against carmine mites on rice plants; assay type: in vivo; details: 500 ppm spray, all stages, after 10 days
Description: The emulsifiable concentrate of each of the present compounds (1) and (6) prepared in Preparation Example 1 was diluted with water so that the concentration of the active ingredient was 500 ppm. The dilute liquor was thoroughly sprayed on rice plants (grown in a 1/10,000 are Wagner's pot) on which carmine mites (Tetranychus cinnabarinus) in all stages were made parasitic.

Row | SMILES | alive green rice leafhoppers found [1] | killifish survival [2] | LC50 at 48 h [3] | Safety coefficient to fishes (a)/(b) [4] | LC50 at 48 h [5] | LC50 [6] | larvae killed [7] | mortality at 400 ppm ([8]; 400 ppm spray, 24 hours after liberation, greenhouse, read-out: Mortality, effect immediately after treatment) | mortality at 400 ppm ([8]; 400 ppm spray, insects liberated 7 days after treatment, 24 hours, greenhouse, read-out: Mortality, effect 7 days after treatment) | spreading of the damage to rice plants by carmine mites [9] | mortality at 400 ppm ([8]; 24 h, read-out: Mortality, effect immediately after treatment) | mortality at 400 ppm ([8]; read-out: Mortality, effect 7 days after treatment)
1 | CC1(C)[C@H](C(=O)OC(C#N)c2cccc(Oc3ccc(Br)cc3)c2)[C@H]1C(Br)C(Cl)(Cl)Br (relative stereo) [(2), m-(p-Bromophenoxy)-α-cyanobenzyl dl-trans-2,2-dimethyl-3-(1,2-dibromo-2,2-dichloroethyl)cyclopropanecarboxylate] | no alive green rice leafhoppers were found | all the killifishes were alive | > 1000 ng/mL | – | – | – | – | – | – | – | – | –
2 | CC1(C)[C@H](C(=O)OC(C#N)c2cccc(Oc3ccc(Br)cc3)c2)[C@@H]1C(Br)C(Cl)(Cl)Br (relative stereo) [(3), m-(p-Bromophenoxy)-α-cyanobenzyl dl-cis-2,2-dimethyl-3-(1,2-dibromo-2,2-dichloroethyl)cyclopropanecarboxylate] | – | – | > 1000 ng/mL | – | – | – | – | – | – | – | – | –
3 | CC1(C)C(C(=O)OC(C#N)c2cccc(Oc3ccc(Br)cc3)c2)C1C(Br)C(Cl)(Cl)Br (stereo not drawn) [(1), m-(p-Bromophenoxy)-α-cyanobenzyl 2,2-dimethyl-3-(1,2-dibromo-2,2-dichloroethyl)cyclopropanecarboxylate] | no alive green rice leafhoppers were found | all the killifishes were alive | > 1000 ng/mL | 333 | 4 µg/mL (≈ 6.11 µM) | 5.8 µg/mL (≈ 8.85 µM) | 100% | 100% | 100% | the spreading of the damage could be prevented | – | –
4 | CC1(C)C(C(=O)OC(C#N)c2cccc(Oc3ccc(Br)cc3)c2)C1C(Br)C(Br)(Br)Br (stereo not drawn) [(4), m-(p-Bromophenoxy)-α-cyanobenzyl 2,2-dimethyl-3-(1,2,2,2-tetrabromoethyl)cyclopropanecarboxylate] | no alive green rice leafhoppers were found | all the killifishes were alive | – | > 500 | > 10 µg/mL | 10 µg/mL (≈ 13.4 µM) | – | – | – | – | – | –
5 | CC1(C)[C@H](C(=O)OC(C#N)c2cccc(Oc3ccc(Br)cc3)c2)[C@H]1C(Br)C(Br)(Br)Br (stereo partly drawn) [(5), m-(p-Bromophenoxy)-α-cyanobenzyl d-trans-2,2-dimethyl-3-(1,2,2,2-tetrabromoethyl)cyclopropanecarboxylate] | no alive green rice leafhoppers were found | all the killifishes were alive | – | > 1667 | > 5 µg/mL | 1.7 µg/mL (≈ 2.29 µM) | – | – | – | – | – | –
6 | CC1(C)[C@H](C(=O)OC(C#N)c2cccc(Oc3ccc(Br)cc3)c2)[C@@H]1C(Br)C(Br)(Br)Br (stereo partly drawn) [(6), m-(p-Bromophenoxy)-α-cyanobenzyl d-cis-2,2-dimethyl-3-(1,2,2,2-tetrabromoethyl)cyclopropanecarboxylate] | – | – | – | > 263 | > 5 µg/mL | 9.5 µg/mL (≈ 12.8 µM) | – | – | – | the spreading of the damage could be prevented | – | –
7 | CC1(C)C(C(=O)OC(C#N)c2cccc(Oc3ccccc3)c2)C1C(Br)C(Cl)(Cl)Br (centres unmarked) [(A), reference compound] | – | – | 3.95 ng/mL (≈ 0.00686 µM) | 50 | 0.5 µg/mL (≈ 0.868 µM) | 5 µg/mL (≈ 8.68 µM) | – | – | – | – | – | –
8 | CC1(C)C(C(=O)OC(C#N)c2cccc(Oc3ccc(F)cc3)c2)C1C(Br)C(Cl)(Cl)Br (centres unmarked) [(B), reference compound] | – | – | 2.8 ng/mL (≈ 0.00471 µM) | 8 | 0.1 µg/mL (≈ 0.168 µM) | 6.5 µg/mL (≈ 10.9 µM) | – | – | – | – | – | –
9 | CNC(=O)Oc1ccc(C)c(C)c1 [MPMC, 3,4-Xylyl Nmethylcarbamate-, reference compound] | – | – | – | – | – | – | – | – | – | – | 100% | 0%
